The subject of one data set is L929 fibroblast cultures. Also on record: method as in PMID 28246541. As to conditions: murine model; read-out: IC50 against L929 fibroblast cultures; cited from earlier work.
For data set [1], the system named is human skin fibroblasts (1BR.3.N cell line). Briefly: Cytotoxicity, Presto Blue cell viability assay on human skin fibroblasts. The data set is classed as cell-based. As to conditions: 1BR.3.N human skin fibroblasts, 24 h incubation, Hill Equation, read-out: IC50 Values (Mean ± SD) Fibroblasts. On the procedure: The cytotoxicity test was conducted on a 1BR.3.N cell line (human skin fibroblasts, ECACC, co. 90020508) and human epidermal keratinocytes, neonatal (Millipore, co. SCCE020) purchased from Sigma-Aldrich (Merck, Darmstadt, Germany). […] The cells were maintained at 37 °C and 5% CO2 in a humidified incubator. Next, the medium was changed into a starvation medium for the 1BR.3.N cell line (EpiGROTM human epidermal keratinocyte complete media kit for keratinocytes) with a variable final concentration of five analyzed complexes (ZnGlu (1), ZnGly (2), ZnHis (3), ZnPro (4), ZnTrp (6)) and two controls, ZnPCA and ZnCl2.

A further data set concerns HaCaT keratinocytes. As to conditions: concentration equal to 100 μM; cited from earlier work.
Data set [2] relates to human epidermal keratinocytes, neonatal. As to the kind of experiment: Cytotoxicity, Presto Blue cell viability assay on human epidermal keratinocytes. The format is cell-based. The settings on record: 24 h incubation, Hill Equation, read-out: IC50 Values (Mean ± SD) Keratinocytes. The protocol: The cytotoxicity test was conducted on a 1BR.3.N cell line (human skin fibroblasts, ECACC, co. 90020508) and human epidermal keratinocytes, neonatal (Millipore, co. SCCE020) purchased from Sigma-Aldrich (Merck, Darmstadt, Germany). The same procedure was conducted for keratinocytes in EpiGROTM human epidermal keratinocyte complete media with 6 mM L-glutamine, 0.405 EpiFactor P, 1.0 μM epinephrine, 0.5 ng/mL rh TGF-α, 100 ng/mL hydrocortisone hemisuccinate, 5 μg/mL rh insulin and apo-transferrin. The cells were maintained at 37 °C and 5% CO2 in a humidified incubator. Next, the medium was changed into a starvation medium for the 1BR.3.N cell line (EpiGROTM human epidermal keratinocyte complete media kit for keratinocytes) with a variable final concentration of five analyzed complexes (ZnGlu (1), ZnGly (2), ZnHis (3), ZnPro (4), ZnTrp (6)) and two controls, ZnPCA and ZnCl2.

The subject of data set [3] is Cutibacterium acnes ATCC 6919. Briefly: Antimicrobial activity by microdilution method (CLSI M11), anaerobic conditions. The format is cell-based. The settings on record: C. acnes ATCC 6919, 48 h at 37 °C, tested up to 500 mg/L. The protocol: The antimicrobial potential of zinc complexes against the anaerobic strain Cutibacterium acnes ATCC 6919 was tested by the microdilution method in Brucella broth supplemented with hemin, vitamin K1 and laked horse blood according to the CLSI document M11 (9th Edition) for antimicrobial susceptibility testing of anaerobic bacteria. Antimicrobial activity testing assays were conducted in 96-well cell culture plates in anaerobic conditions. The antimicrobial properties of zinc complexes were tested up to 500 mg/L. […] The bacterial suspension and dilutions of the tested compounds were combined in equal volumes to achieve the expected concentrations of zinc amino acid complexes. Samples as well as adequate abiotic and biotic controls were incubated for 48 h at 37 °C after being placed in 96-well cell culture plates in anaerobic jars, in which anaerobic conditions were formed using Anoxomat Mark II CTS (Mart Microbiology […], the Netherlands). The minimum inhibitory concentration (MIC), expressed in mg/L, was determined as the lowest concentration of zinc amino acid complexes at which no growth of C. acnes was observed. […] The Brucella agar plates were incubated for 48 h at 37 °C after placing the plates in anaerobic jars, in which anaerobic conditions were created.

Data set [4] concerns human lung fibroblast (MRC-5) cell line. On the set-up: method as in PMID 30594780. The settings on record: concentrations up to 100 µM; cited from earlier work.

Regarding `[Cl-].[Cl-].[Zn+2]` [ZnCl2], the IC50 in the data set on L929 fibroblast cultures is 0.928 µM; in data set [1], 163 ± 4.1 µM; in data set [2] it was 127 µM. The “toxicity to HaCaT keratinocytes” value in the data set on HaCaT keratinocytes is given as “non-toxic”.
`NCC(=O)[O-].NCC(=O)[O-].[Zn+2]` [ZnGly (2)]: the half-maximal inhibitory concentration (IC50) in data set [1] came out at 120 ± 4.61 µM; in data set [2], 138 ± 8.11 µM. Also, the “MIC Value” in data set [3] was found to be 100 µg/mL.
For `O=C1CCC(C(=O)[O-])N1.O=C1CCC(C(=O)[O-])N1.[Zn+2]` (centres unmarked) [ZnPCA, zinc 2-pirrolidone 5-carboxylate], the figures for the 50% inhibitory concentration (IC50) in data set [1] and in data set [2] were 172 ± 9.69 µM and 102 ± 2.07 µM, respectively. Further, in data set [3], the “MIC Value” is 175 µg/mL.
In the case of “copper(II) complex with 5-hydroxytryptophan”, the “toxic effects on MRC-5 cell line” value in data set [4] is “no toxic effects”.

The values are drawn from PMC7915519, “Zinc(II) Complexes of Amino Acids as New Active Ingredients for Anti-Acne Dermatological Preparations” (International Journal of Molecular Sciences, 2021).
